Results taken from the supplement of paper PMC10307832.

Experiments:
Assay in all cases: relative viability (nuclei count vs DMSO), 5 days (fraction); higher = more cells survive
Venetoclax + Trametinib = compound: CC1(C)CCC(CN2CCN(c3ccc(C(=O)NS(=O)(=O)c4ccc(NCC5CCOCC5)c([N+](=O)[O-])c4)c(Oc4cnc5[nH]ccc5c4)c3)CC2)=C(c2ccc(Cl)cc2)C1 [Venetoclax] + CC(=O)Nc1cccc(-n2c(=O)n(C3CC3)c(=O)c3c(Nc4ccc(I)cc4F)n(C)c(=O)c(C)c32)c1 [Trametinib] (partner 0.02 µM)
Procedure, shortened: (§1)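 Dosing by pin tool came one day after lung cancer cell lines were seeded in 1536-well plates, using either one drug or a fixed anchor-drug dose plus five library-drug doses (not always all listed) in √10 steps. After 5 days, nuclei were counted on 4× images. Relative viability is treated-well nuclei count divided by vehicle-well nuclei count, and values are medians of duplicate plates.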

Venetoclax + Pictilisib = compound: CC1(C)CCC(CN2CCN(c3ccc(C(=O)NS(=O)(=O)c4ccc(NCC5CCOCC5)c([N+](=O)[O-])c4)c(Oc4cnc5[nH]ccc5c4)c3)CC2)=C(c2ccc(Cl)cc2)C1 [Venetoclax] + CS(=O)(=O)N1CCN(Cc2cc3nc(-c4cccc5[nH]ncc45)nc(N4CCOCC4)c3s2)CC1 [Pictilisib] (partner 1 µM)
Procedure, shortened: as §1

Selumetinib + Lapatinib = compound: Cn1cnc2c(F)c(Nc3ccc(Br)cc3Cl)c(C(=O)NOCCO)cc21 [Selumetinib] + CS(=O)(=O)CCNCc1ccc(-c2ccc3ncnc(Nc4ccc(OCc5cccc(F)c5)c(Cl)c4)c3c2)o1 [Lapatinib] (partner 2 µM)
Procedure, shortened: as §1

Selumetinib + Olaparib = compound: Cn1cnc2c(F)c(Nc3ccc(Br)cc3Cl)c(C(=O)NOCCO)cc21 [Selumetinib] + O=C(c1cc(Cc2n[nH]c(=O)c3ccccc23)ccc1F)N1CCN(C(=O)C2CC2)CC1 [Olaparib] (partner 8 µM)
Procedure, shortened: as §1

UMC-11
relative viability (Venetoclax + Trametinib; first compound 0.01 µM): 0.674
relative viability (Venetoclax + Trametinib; first compound 0.03162 µM): 0.74
relative viability (Venetoclax + Trametinib; first compound 0.1 µM): 0.713
relative viability (Venetoclax + Trametinib; first compound 0.3162 µM): 0.664
relative viability (Venetoclax + Trametinib; first compound 1 µM): 0.749
relative viability (Venetoclax + Pictilisib; first compound 0.01 µM): 0.817
relative viability (Venetoclax + Pictilisib; first compound 0.03162 µM): 0.985
relative viability (Venetoclax + Pictilisib; first compound 0.1 µM): 0.747
relative viability (Venetoclax + Pictilisib; first compound 0.3162 µM): 0.741
relative viability (Venetoclax + Pictilisib; first compound 1 µM): 0.72
relative viability (Selumetinib + Lapatinib; first compound 0.02 µM): 0.954
relative viability (Selumetinib + Lapatinib; first compound 0.06325 µM): 0.897
relative viability (Selumetinib + Lapatinib; first compound 0.2 µM): 0.972
relative viability (Selumetinib + Lapatinib; first compound 0.6325 µM): 1.02
relative viability (Selumetinib + Olaparib; first compound 0.02 µM): 0.32
relative viability (Selumetinib + Olaparib; first compound 0.06325 µM): 0.33
relative viability (Selumetinib + Olaparib; first compound 0.2 µM): 0.384
relative viability (Selumetinib + Olaparib; first compound 0.6325 µM): 0.914
